The test concerns primary rat mixed cortical cells. Kind of test: In vitro myelination assay (MBP positive myelin strands, fold myelin pixels above background). The format is cell-based. The conditions noted are these: Rattus norvegicus; for fold induction at 1 µM: 1.0 μM compound; for fold induction at 10 µM: 10.0 μM compound. In outline:
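Myelination read as total MBP-immunopositive strand pixels per well, imaged at 10× after fixation on day 14 and expressed relative to untreated wells, at 1.0 and 10.0 μM. Cells: dissociated postnatal day 1 rat cortex, cultured two weeks with compound, re-dosed at days 6 and 10.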

Where [1] appears, read: relative to baseline of no added compound, read-out: Fold myelin pixels above background.
Where [2] appears, read: read-out: Fold myelin pixels above background relative to baseline of no added compound.
Setting [3] is: relative to baseline of no added compound, read-out: Fold myelin pixels above background, 1.0 μM.
Where [4] appears, read: relative to baseline of no added compound, read-out: Fold myelin pixels above background, 10.0 μM.

Read-outs that look alike come from different tables or passages of the source. Some results are limits rather than exact numbers.

From patent US10766869B2, “Triazoles for the treatment of demyelinating dieases” (Vertex Pharmaceuticals Incorporated, priority 2015, dated 2020) come the findings set out here.

Take `CCc1cc(Nc2ncn(-c3cccc(OC)c3)n2)cc(N2CCN(C3COC3)CC2)c1` [Compound 432, N-[3-ethyl-5-[4-(oxetan-3-yl)piperazin-1-yl]phenyl]-1-(3-methoxyphenyl)-1,2,4-triazol-3-amine]: under setting [1], the fold induction at 1 µM was in the range of 100 to 1000 and the fold induction at 10 µM lay in the range of 1 to 10.

For the compound `CCc1cc(Nc2ncn(-c3cccc(F)c3)n2)cc(N2CCN(C3COC3)CC2)c1` [Compound 468, N-[3-ethyl-5-[4-(oxetan-3-yl)piperazin-1-yl]phenyl]-1-(3-fluorophenyl)-1,2,4-triazol-3-amine], under setting [1], the fold induction at 1 µM was 100 to 1000 and the fold induction at 10 µM was in the range of 1 to 10.

For the compound `C1=C(c2cc(Nc3ncn(-c4ccccc4)n3)cc(N3CCOCC3)c2)COC1` [Compound 465, N-[3-(2,5-dihydrofuran-3-yl)-5-morpholino-phenyl]-1-phenyl-1,2,4-triazol-3-amine], under setting [1], the fold induction at 1 µM lay within 100 to 1000 and the fold induction at 10 µM is at most 1.

Regarding `Cc1cc(Nc2ncn(-c3ccccc3Cl)n2)cc(N2CCN(C3COC3)CC2)c1` [Compound 446, 1-(2-chlorophenyl)-N-[3-methyl-5-[4-(oxetan-3-yl)piperazin-1-yl]phenyl]-1,2,4-triazol-3-amine], under setting [1], the fold induction at 1 µM lay in the range of 1 to 10 and the fold induction at 10 µM was in the range of 1000 to 10000.

Take `[2H]C1([2H])N(CC2COCCO2)C([2H])([2H])C([2H])([2H])N(c2cc(C)cc(Nc3ncn(-c4cc(F)cc(F)c4)n3)c2)C1([2H])[2H]` (centres unmarked) [Compound 885, 1-(3,5-difluorophenyl)-N-[3-methyl-5-[2,2,3,3,5,5,6,6-octadeuterio-4-(1,4-dioxan-2-ylmethyl)piperazin-1-yl]phenyl]-1,2,4-triazol-3-amine]: under setting [2], the fold induction at 1 µM lay in the range of 10 to 100 and the fold induction at 10 µM was at most 1.

Regarding `Cc1cc(Nc2ncn(-c3cc(F)cc(F)c3)n2)cc(N2CCC(N3CCC(O)C3)C2)c1` (centres unmarked) [Compound 1040, 1-[1-[3-[[1-(3,5-difluorophenyl)-1,2,4-triazol-3-yl]amino]-5-methyl-phenyl]pyrrolidin-3-yl]pyrrolidin-3-ol], under setting [2], the fold induction at 1 µM lay in the range of 10 to 100 and the fold induction at 10 µM is at most 1.

As to `CCc1cc(Nc2ncn(-c3cncnc3)n2)cc(N2CCN(C3COC3)CC2)c1` [Compound 549, N-[3-ethyl-5-[4-(oxetan-3-yl)piperazin-1-yl]phenyl]-1-pyrimidin-5-yl-1,2,4-triazol-3-amine], under setting [1], the fold induction at 1 µM was 1 to 10 and the fold induction at 10 µM is 10 to 100.

Take `Cc1cc(Nc2ncn(-c3cc(F)cc(F)c3)n2)cc([C@@]2(C)CNC(=O)O2)c1` (single isomer, unassigned) [Compound 679]: under setting [1], the fold induction at 1 µM lay in the range of 10 to 100 and the fold induction at 10 µM was 1 to 10.

For `Cc1cc(Nc2ncn(-c3ccccc3)n2)cc(C2CCN(C3COC3)C2)c1` (centres unmarked) [Compound 260, N-[3-methyl-5-[1-(oxetan-3-yl)pyrrolidin-3-yl]phenyl]-1-phenyl-1,2,4-triazol-3-amine], the fold induction at 1 µM under setting [3] lay within 1000 to 10000. In addition, under setting [4], the fold induction at 10 µM is at most 1.

Take `Cc1cc(Nc2ncn(-c3ccccc3)n2)c(F)c(OC2CCOC2)c1` (centres unmarked) [Compound 907, N-(2-fluoro-5-methyl-3-tetrahydrofuran-3-yloxy-phenyl)-1-phenyl-1,2,4-triazol-3-amine]: under setting [2], the fold induction at 1 µM lay within 10 to 100 and the fold induction at 10 µM lay in the range of 100 to 1000.

`Cc1cc(Nc2ncn(-c3cc(F)cc(F)c3)n2)cc(N2CCNC(C(F)(F)F)C2)c1` (centres unmarked) [Compound 552, 1-(3,5-difluorophenyl)-N-[3-methyl-5-[3-(trifluoromethyl)piperazin-1-yl]phenyl]-1,2,4-triazol-3-amine]: under setting [1], the fold induction at 1 µM is 10 to 100 and the fold induction at 10 µM lay in the range of 10 to 100.

For `Fc1ccc(-n2cnc(Nc3cc(C4=CCOCC4)nc(C4CC4)c3)n2)cc1F` [Compound 3, 2-cyclopropyl-N-[1-(3,4-difluorophenyl)-1,2,4-triazol-3-yl]-6-(3,6-dihydro-2H-pyran-4-yl)pyridin-4-amine], the fold induction at 1 µM under setting [3] lay within 100 to 1000. Moreover, under setting [4], the fold induction at 10 µM lay in the range of 1000 to 10000.

`CCc1cc(Nc2ncn(-c3cc(F)ccc3F)n2)cc(N2CCN(C3COC3)CC2)c1` [Compound 417, 1-(2,5-difluorophenyl)-N-[3-ethyl-5-[4-(oxetan-3-yl)piperazin-1-yl]phenyl]-1,2,4-triazol-3-amine]: under setting [1], the fold induction at 1 µM lay within 100 to 1000 and the fold induction at 10 µM lay within 1000 to 10000.

For `COc1cc(Nc2ncn(-c3cccc(F)c3)n2)cc(N2CCN(C3COC3)CC2)c1` [Compound 258, 1-(3-fluorophenyl)-N-[3-methoxy-5-[4-(oxetan-3-yl)piperazin-1-yl]phenyl]-1,2,4-triazol-3-amine], the fold induction at 1 µM under setting [3] lay within 100 to 1000. Under setting [4], the fold induction at 10 µM fell in the range of 1 to 10.

`Cc1cc(Nc2ncn(-c3ccccc3)n2)cc(N2CCN(C3CCOC3C)CC2)c1` (centres unmarked) [Compound 127, N-[3-methyl-5-[4-(2-methyltetrahydrofuran-3-yl)piperazin-1-yl]phenyl]-1-phenyl-1,2,4-triazol-3-amine]: the fold induction at 1 µM under setting [3] lay within 1000 to 10000. Under setting [4], the fold induction at 10 µM lay within 1 to 10.

On to `COC1CCN(C2CCN(c3cc(C)cc(Nc4ncn(-c5cc(F)cc(F)c5)n4)c3)CC2)CC1` [Compound 1068, 1-(3,5-difluorophenyl)-N-[3-[4-(4-methoxy-1-piperidyl)-1-piperidyl]-5-methyl-phenyl]-1,2,4-triazol-3-amine], for which, under setting [2], the fold induction at 1 µM lay in the range of 10 to 100 and the fold induction at 10 µM was in the range of 10 to 100.

Regarding `Cc1cc(Nc2ncn(-c3cc(F)cc(F)c3)n2)cc(N2CCOCC2)c1` [Compound 374, 1-(3,5-difluorophenyl)-N-(3-methyl-5-morpholino-phenyl)-1,2,4-triazol-3-amine], under setting [3], the fold induction at 1 µM lay within 100 to 1000. In addition, the fold induction at 10 µM under setting [4] lay in the range of 100 to 1000.

Turning to `Cc1cc(Nc2ncn(-c3cc(F)cc(F)c3)n2)cc(N2CCN(CC3COCCO3)CC2)c1` (centres unmarked) [Compound 949, 1-(3,5-difluorophenyl)-N-[3-[4-(1,4-dioxan-2-ylmethyl)piperazin-1-yl]-5-methyl-phenyl]-1,2,4-triazol-3-amine], under setting [2], the fold induction at 1 µM was in the range of 10 to 100 and the fold induction at 10 µM lay within 10 to 100.

Regarding `Cc1cc(Nc2ncn(-c3cc(F)cc(F)c3)n2)cc(N2CC(C)(N3CCOCC3)C2)c1` [Compound 683, 1-(3,5-difluorophenyl)-N-[3-methyl-5-(3-methyl-3-morpholino-azetidin-1-yl)phenyl]-1,2,4-triazol-3-amine], under setting [1], the fold induction at 1 µM lay within 10 to 100 and the fold induction at 10 µM lay within 10 to 100.

Turning to `OC1(C2CN(c3cc(Nc4ncn(-c5cc(F)cc(F)c5)n4)cc(C(F)(F)F)c3)CCN2)CCC1` (centres unmarked) [Compound 4, 1-[4-[3-[[1-(3,5-difluorophenyl)-1,2,4-triazol-3-yl]amino]-5-(trifluoromethyl)phenyl]piperazin-2-yl]cyclobutanol], under setting [3], the fold induction at 1 µM lay in the range of 1 to 10. The fold induction at 10 µM under setting [4] is at most 1.

As for `Cc1cc(Nc2ncn(-c3ccccc3)n2)cc(O[C@H]2CCN(C3COC3)C2)c1` [Compound 239, N-[3-methyl-5-[(3S)-1-(oxetan-3-yl)pyrrolidin-3-yl]oxy-phenyl]-1-phenyl-1,2,4-triazol-3-amine], the fold induction at 1 µM under setting [3] lay within 1000 to 10000. Also, under setting [4], the fold induction at 10 µM was at most 1.

On to `Cc1cc(Nc2ncn(-c3cc(F)cc(F)c3)n2)cc(N2CC(S(C)(=O)=O)C2)c1` [Compound 1037, 1-(3,5-difluorophenyl)-N-[3-methyl-5-(3-methylsulfonylazetidin-1-yl)phenyl]-1,2,4-triazol-3-amine], for which, under setting [2], the fold induction at 1 µM is 10 to 100 and the fold induction at 10 µM was at most 1.

On to `Cc1cc(Nc2ncn(-c3ccccc3)n2)cc(NC2CCN(C3COC3)CC2)c1` [Compound 334, 5-methyl-N1-[1-(oxetan-3-yl)-4-piperidyl]-N3-(1-phenyl-1,2,4-triazol-3-yl)benzene-1,3-diamine], for which, under setting [3], the fold induction at 1 µM fell in the range of 100 to 1000. Moreover, the fold induction at 10 µM under setting [4] was in the range of 1000 to 10000.

As to `Cc1cc(Nc2ncn(-c3cc(F)cc(F)c3)n2)cc(C2CCN(C3CC3)CC2)c1` [Compound 261, N-[3-(1-cyclopropyl-4-piperidyl)-5-methyl-phenyl]-1-(3,5-difluorophenyl)-1,2,4-triazol-3-amine], the fold induction at 1 µM under setting [3] fell in the range of 10 to 100. In addition, the fold induction at 10 µM under setting [4] lay within 10 to 100.

As for `c1ccc(-n2cnc(Nc3cc(C4CCOCC4)cc(C4CCOCC4)c3)n2)cc1` [Compound 10, N-[3,5-di(tetrahydropyran-4-yl)phenyl]-1-phenyl-1,2,4-triazol-3-amine], the fold induction at 1 µM under setting [3] was 1 to 10. The fold induction at 10 µM under setting [4] is at most 1.

For the compound `N#Cc1cc(Nc2ncn(-c3cc(F)cc(F)c3)n2)cc(N2CCOCC2)c1` [Compound 835, 3-[[1-(3,5-difluorophenyl)-1,2,4-triazol-3-yl]amino]-5-morpholino-benzonitrile], under setting [2], the fold induction at 1 µM was 1 to 10 and the fold induction at 10 µM was in the range of 10 to 100.

Turning to `Cc1cc(Nc2ncn(-c3ccccc3)n2)cc(N2CCN(C)C(=O)C2)c1` [Compound 76, 1-methyl-4-[3-methyl-5-[(1-phenyl-1,2,4-triazol-3-yl)amino]phenyl]piperazin-2-one], the fold induction at 1 µM under setting [3] lay within 100 to 1000. Further, the fold induction at 10 µM under setting [4] fell in the range of 100 to 1000.

In the case of `Cc1cc(Nc2ncn(-c3cccc(Cl)c3)n2)cc(N2CCN(C)CC2)c1` [Compound 141, 1-(3-chlorophenyl)-N-[3-methyl-5-(4-methylpiperazin-1-yl)phenyl]-1,2,4-triazol-3-amine], the fold induction at 1 µM under setting [3] lay within 100 to 1000. Further, under setting [4], the fold induction at 10 µM is at most 1.
